Assay results taken from patent publication US20250002472A1, “PYRIDYL-CONTAINING COMPOUND” (CHIA TAI TIANQING PHARMACEUTICAL GROUP CO., LTD., priority 2021, published 2025).

Assays:
[1] = In vitro liver microsomal stability, human; type: in vitro ADME; details: human liver microsomes 0.5 mg/mL, NADPH, 37° C.
Procedure: (§1) Liver microsome incubation samples were prepared by mixing a PBS buffer (pH=7.4), a liver microsome solution (0.5 mg/mL), a test compound, and an NADPH+MgCl2 solution, and incubated at 37° C. and 300 rpm for 1 h. Zero-hour samples were prepared by mixing a PBS buffer (pH=7.4), a liver microsome solution (0.5 mg/mL), and a test compound. An acetonitrile solution containing an internal standard was added to the samples, and supernatants were prepared by protein precipitation, diluted, and then assayed by LC/MS/MS.

[2] = In vitro liver microsomal stability, mouse; type: in vitro ADME; details: mouse liver microsomes 0.5 mg/mL, NADPH, 37° C.
Procedure: as §1

[3] = system: OCI-LY10 human diffuse large B-cell lymphoma NOD-SCID mouse subcutaneous xenograft tumor; experiment: Efficacy evaluation in OCI-LY10 NOD-SCID mouse subcutaneous xenograft tumor model; type: in vivo, NOD-SCID mice
Excerpt: Efficacy evaluation in OCI-LY10 human diffuse large B-cell lymphoma NOD-SCID mouse subcutaneous xenograft tumor model
(1) SPF female NOD-SCID mice (source: Jiangsu Huachuang Xinnuo Pharmaceutical Technology Co., Ltd.) were inoculated subcutaneously at the right side armpit with OCI-LY10 human diffuse large B-cell lymphoma cells at 1×10^7 cells/mouse. When the mean tumor volume reached about 200 mm^3, the animals were divided into a control group (vehicle control group) and treatment groups (compound groups).
The administration dose included 1 mg/kg, 2 mg/kg, and 4 mg/kg, and the administration frequency was once daily. The day of grouping was defined as day 0, and intragastric administration was started on day 0 for 21 consecutive days.
Alternatively, the administration dose was 4 mg/kg, and the administration frequency was 5 times per week. The day of grouping was defined as day 0, and intragastric administration was started on day 0 five times per week for two consecutive weeks.
The tumor volume was measured once every 3 days, and meanwhile, the mice were weighed and the data were recorded; the general behavior of the mice was observed and recorded every day. After the experiment was completed, the tumors were removed, weighed, and photographed.
The detection index and the calculation formula are as follows:
Tumor volume TV (mm^3)=½×(a×b^2), wherein a is the long diameter of the tumor, and b is the short diameter of the tumor; • Relative tumor volume RTV=TVt/TV0, wherein TV0 is the tumor volume on day 0, and TVt is the tumor volume at each measurement; • Relative tumor proliferation rate T/C (%)=(TRTV/CRTV)×100%, wherein TRTV is RTV of the treatment group, and CRTV is RTV of the vehicle control group; • Tumor growth inhibition rate TGI (%)=(1−TW/TW0)×100%; wherein TW is the tumor weight of the treatment group, and TW0 is the tumor weight of the vehicle control group; • Weight change rate WCR (%)=(Wtt−Wt0)/Wt0×100%, wherein Wt0 is the body weight of the mouse on day 0, and Wtt is the body weight of the mouse at each measurement.

Mouse pharmacokinetics = type: in vivo; details: ICR, plasma, po, 3 mg/kg, mice, intragastric 3 mpk vs intravenous 1 mpk, read-out: Absolute bioavailability F (%)
Procedure: ICR mice weighing 18-22 g were randomized into groups of 9 mice per group after 3-5 days of acclimatization and then administered intragastrically at a dose of 3 mg/kg.
Plasma samples to be tested were prepared by taking blood from the orbit at time points of 15 min, 30 min, 1 h, 2 h, 4 h, 6 h, 8 h, 10 h, and 24 h.
20 μL of each plasma sample to be tested and a standard curve sample were taken, and an acetonitrile solution containing an internal standard was added. A supernatant was obtained by protein precipitation, diluted, and then assayed by LC/MS/MS.
Pharmacokinetic parameters were fitted using a non-compartmental model.

Human liver microsome Residuals at 60 min (%) [1]	Mouse liver microsome Residuals at 60 min (%) [2]	SMILES	also measured
100.33%	93.27%	NC(=O)/C(=C/n1cnc(-c2cc(C(F)(F)F)nc(C(F)(F)F)c2)n1)c1cnc(NCC(F)(F)F)nc1 [Compound 4]	
		NC(=O)/C(=C/n1cnc(-c2cc(C(F)(F)F)nc(C(F)(F)F)c2)n1)c1cnc2cccnc2c1 [Compound 25]	Weight change rate (%) (mean ± SD) ([3]; Table 4, 4 mg/kg intragastric, Day 21 of assay): 1.7 ± 5.3%
93.92%	95.11%	C[C@@H](Nc1ncc(/C(=C\n2cnc(-c3cc(C4CC4)nc(C(F)(F)F)c3)n2)C(N)=O)cn1)C(F)(F)F [Compound 17]	
106.91%	89.18%	NC(=O)/C(=C/n1cnc(-c2cc(C3CC3)nc(C(F)(F)F)c2)n1)c1ccc(F)nc1 [Compound 39]	
100.32%	95.08%	NC(=O)/C(=C/n1cnc(-c2cc(C3CC3)nc(C(F)(F)F)c2)n1)c1cccnc1F [Compound 32]	
98.75%	89.94%	N#Cc1cncc(/C(=C\n2cnc(-c3cc(C4CC4)nc(C(F)(F)F)c3)n2)C(N)=O)c1 [Compound 30]	
96.64%	90.27%	NC(=O)/C(=C/n1cnc(-c2cc(C3CC3)nc(C(F)(F)F)c2)n1)c1cnc2ccccc2c1 [Compound 26]	
88.75%	90.60%	NC(=O)/C(=C/n1cnc(-c2cc(C3CC3)nc(C(F)(F)F)c2)n1)c1cnc(NCC(F)(F)F)nc1 [Compound 16]	
		NC(=O)/C(=C/n1cnc(-c2cc(C(F)(F)F)nc(C(F)(F)F)c2)n1)c1cnc(NCC(F)F)nc1 [Compound 2]	bioavailability (Mouse pharmacokinetics): 104%
93.23%	91.15%	NC(=O)/C(=C/n1cnc(-c2cc(C3CC3)nc(C(F)(F)F)c2)n1)c1cncnc1 [Compound 13]	
101.7%	98.98%	NC(=O)/C(=C/n1cnc(-c2cc(C(F)(F)F)nc(C(F)(F)F)c2)n1)c1cncc(F)c1 [Compound 8]	
		CC(F)(F)CNc1ncc(/C(=C\n2cnc(-c3cc(C(F)(F)F)nc(C(F)(F)F)c3)n2)C(N)=O)cn1 [Compound 3]	bioavailability (Mouse pharmacokinetics): 114%
80.48%	83.14%	NC(=O)/C(=C/n1cnc(-c2cc(C3CC3)nc(C(F)(F)F)c2)n1)c1cnc(NCC(F)F)nc1 [Compound 14]	
		NC(=O)/C(=C/n1cnc(-c2cc(C(F)(F)F)nc(C(F)(F)F)c2)n1)c1cnc2ccccc2c1 [Compound 11]	Weight change rate (%) (mean ± SD) ([3]; Table 5, 4 mg/kg intragastric, Day 18 of assay): 0.6 ± 8.1%
104.79%	98.21%	NC(=O)/C(=C/n1cnc(-c2cc(C3CC3)nc(C(F)(F)F)c2)n1)c1cnc2cccnc2c1 [Compound 33]	
97.64%	99.03%	C[C@@H](Nc1ncc(/C(=C\n2cnc(-c3cc(C(F)(F)F)nc(C(F)(F)F)c3)n2)C(N)=O)cn1)C(F)(F)F [Compound 5]	
102.54%	94.24%	NC(=O)/C(=C/n1cnc(-c2cc(C3CC3)nc(C(F)(F)F)c2)n1)c1cncc(F)c1 [Compound 27]	
101.21%	87.79%	COc1ccc(/C(=C\n2cnc(-c3cc(C4CC4)nc(C(F)(F)F)c3)n2)C(N)=O)cn1 [Compound 34]	
		Cc1ccc(/C(=C\n2cnc(-c3cc(C4CC4)nc(C(F)(F)F)c3)n2)C(N)=O)cn1 [Compound 38]	bioavailability (Mouse pharmacokinetics): 112%
		Cc1ccc(/C(=C\n2cnc(-c3cc(C(F)(F)F)nc(C(F)(F)F)c3)n2)C(N)=O)cn1 [Compound 21]	Weight change rate (%) (mean ± SD) ([3]; Table 4, 2 mg/kg intragastric, Day 21 of assay): −2.0 ± 6.5%; bioavailability (Mouse pharmacokinetics): 97.3%
		CC(F)(F)CNc1ncc(/C(=C\n2cnc(-c3cc(C4CC4)nc(C(F)(F)F)c3)n2)C(N)=O)cn1 [Compound 15]	bioavailability (Mouse pharmacokinetics): 94.8%
95.75%	93.99%	N#Cc1cncc(/C(=C\n2cnc(-c3cc(C(F)(F)F)nc(C(F)(F)F)c3)n2)C(N)=O)c1 [Compound 10]	
